Data as given in BindingDB's records for doi:10.1021/jm00117a005 (Sterling-Winthrop Research Institute, 1988).

Molecular target: DNA gyrase (Escherichia coli)
Assay: Gyrase inhibitory activity against Escherichia coli

- IC50: 2670 nM
SMILES: CN1CCN(c2c(F)cc3c(=O)c(C(=O)O)cn4c3c2OCC42CC2)CC1
